Patent US11998544B2, “Methods of using splicing modulators” (EISAI R&D MANAGEMENT CO., LTD., priority 2018, dated 2024)

Legend:
SF3b1 mutant cell lines = settings: previously shown, U.S. Pat. No. 9,481,669 B2 and PCT/US2016/062525, cited from earlier work
CT26 syngeneic tumors = experiment: Efficacy study, mouse colon cancer syngeneic model (CT26); type: in vivo; settings: Balb/c mice with CT26 tumors; Compound 1 at any dose level or schedule; FIG. 1A
Method: Efficacy Study Protocol: Mouse Colon Cancer Syngeneic Model
CT26 colon cancer cells (0.25×10^6; ATCC Cat # CRL-2638) were implanted subcutaneously into the right flank of eight-week old female Balb/c mice (Envigo) in 100 μL of PBS lacking matrigel. CT26 tumors were allowed to grow to an average of ˜100 mm^3 before animals were enrolled onto the efficacy study. Each treatment group contained 12 mice. Mice were treated with Compound 1, an anti-CTLA4 antibody (Bio X Cell Catalog Number: BE0164 (αCTLA4 9D9)), or a combination at doses and routes of administration as shown in FIG. 1. Compound 1 was formulated in a composition containing 5% ethanol and 95% methylcellulose solution (0.5% methylcellulose. The anti-CTLA4 antibody was formulated in phosphate buffer solution at pH 7.0. Tumors were measured 3 times per week for up to 19 days. Tumor volumes were calculated using the ellipsoid formula: Tumor Volume=(length×width^2)/2

[1] = in vivo; cited from earlier work

| Compound | cellular lethality (SF3b1 mutant cell lines; SF3b1 mutant cell lines) | splicing modulator activity (SF3b1 mutant cell lines) | antitumor activity (growth curves compared to vehicle treated controls) (CT26 syngeneic tumors) | plasma half-life [1] |
| --- | --- | --- | --- | --- |
| C/C(=C\C=C\[C@@H](C)c1ccccn1)[C@H]1OC(=O)C[C@H](O)CC[C@@](C)(O)[C@@H](OC(=O)N2CCN(C)CC2)/C=C/[C@@H]1C [Compound 1, (2S,3S,6S,7R,10R,E)-7,10-dihydroxy-3,7-dimethyl-12-oxo-2-((R,2E,4E)-6-(pyridin-2-yl)hepta-2,4-dien-2-yl)oxacyclododec-4-en-6-yl 4-methylpiperazine-1-carboxylate] | cellular lethality in SF3b1 mutant cell lines | demonstrate splicing modulator activity | did not result in noticeable antitumor activity |  |
| Ipilimumab: fully human anti-CTLA4 antibody, an IgG1 |  |  |  | 12 to 14 days |
| tremelimumab: fully human anti-CTLA4 antibody, an IgG2 |  |  |  | approximately 22 days |
